We go through six molecules from publication PMC6787355, “Purification, kinetic characterization, and site-directed mutagenesis of Methanothermobacter thermautotrophicus RFAP Synthase Produced in Escherichia coli” (AIMS Microbiology, 2019).

As usually defined, the Kd is the free concentration of one partner at which half of the binding sites on the other are occupied at equilibrium, for simple one-to-one binding. In general, Vmax refers to the rate approached at saturating substrate. The Km is the concentration of substrate that gives half-maximal velocity. For orientation: stoichiometry N means a count of units in the complex or per binding partner.

“And” between values parts separate entries of the source, which are not always exact repeats. Equal entries are not always repeated. Where two headings read alike, the source gives them in different places.

Data set [1] concerns the target T1, MTH0830 RFAP synthase R26K variant (Methanothermobacter thermautotrophicus, UniProt O26918, R26K).
T1 sequence (O26918 1-329 R26K): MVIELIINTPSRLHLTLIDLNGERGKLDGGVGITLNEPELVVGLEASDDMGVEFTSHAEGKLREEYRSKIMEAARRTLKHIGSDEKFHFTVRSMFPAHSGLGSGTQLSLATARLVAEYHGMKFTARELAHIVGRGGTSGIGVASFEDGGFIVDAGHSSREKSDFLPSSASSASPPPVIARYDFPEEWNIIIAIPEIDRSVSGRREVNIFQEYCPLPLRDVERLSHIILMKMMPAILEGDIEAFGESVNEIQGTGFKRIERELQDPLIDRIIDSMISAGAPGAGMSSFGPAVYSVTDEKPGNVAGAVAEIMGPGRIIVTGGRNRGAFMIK
Kind of data set: Isothermal titration calorimetry, R26K variant. Format: binding. Here is the method: (§1) The ITC conditions previously established for M. jannaschii RFAP synthase were modified for the RFAP synthase from M. thermautotrophicus. Partially purified wild-type (heat-treated at 65 °C) and variant (heat-treated at 50 °C) RFAP synthases (2–5 mL) were dialyzed against two changes of buffer (250 mL each of 50 mM Tris, 100 mM NaCl, pH 7.6). […] All ITC measurements were carried out using a NANO-ITC isothermal titration calorimeter (TA Instruments, New Castle, DE).
(§2) Following an 1800 s delay, 10 injections of 5 µL of PRPP each were added every 240 seconds with stirring at 300 rpm.
(Isothermal titration calorimetry measures the heat released or taken up as one component is titrated into another.)

The target of data set [2] is T2, MTH0830 RFAP synthase D19N variant (Methanothermobacter thermautotrophicus, UniProt O26918, D19N).
T2 sequence (O26918 1-329 D19N): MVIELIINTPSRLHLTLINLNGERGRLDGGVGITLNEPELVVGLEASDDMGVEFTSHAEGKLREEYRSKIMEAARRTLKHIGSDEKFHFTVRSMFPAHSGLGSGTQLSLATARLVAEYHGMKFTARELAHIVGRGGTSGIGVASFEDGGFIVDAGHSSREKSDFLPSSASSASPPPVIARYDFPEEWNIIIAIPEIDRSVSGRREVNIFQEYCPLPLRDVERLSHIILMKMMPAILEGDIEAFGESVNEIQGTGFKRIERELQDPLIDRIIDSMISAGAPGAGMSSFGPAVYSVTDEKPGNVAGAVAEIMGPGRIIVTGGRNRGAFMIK
The data set can be described thus: Isothermal titration calorimetry, D19N variant. Format: binding. Here is the method:
as §1, §2

Data set [3] has as its target RFAP synthase from M. jannaschii. The arrangement: method as in PMID 15262968. Conditions: read-out: binding constant (KD) for PRPP; cited from earlier work.
The target of data set [4] is wild-type MTH0830 RFAP synthase (Methanothermobacter thermautotrophicus, UniProt O26918). The data set can be described thus: Isothermal titration calorimetry, wild-type enzyme. Format: binding. Conditions: ITC, 35 °C. Here is the method:
as §1, §2

The target in data set [5] is T3, wild-type M. thermautotrophicus RFAP synthase (MTH0830) produced in E. coli (Methanothermobacter thermautotrophicus, UniProt O26918).
T3 sequence (O26918 1-329): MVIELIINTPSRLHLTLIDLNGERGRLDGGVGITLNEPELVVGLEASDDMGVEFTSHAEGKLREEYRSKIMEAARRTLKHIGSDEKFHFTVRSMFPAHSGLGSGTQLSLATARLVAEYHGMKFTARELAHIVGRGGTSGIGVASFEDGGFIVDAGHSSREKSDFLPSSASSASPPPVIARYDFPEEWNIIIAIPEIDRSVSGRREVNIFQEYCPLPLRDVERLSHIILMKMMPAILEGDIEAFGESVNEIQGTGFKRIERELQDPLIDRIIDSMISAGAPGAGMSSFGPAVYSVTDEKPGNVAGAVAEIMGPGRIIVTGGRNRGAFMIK
Kind of data set: RFAP synthase enzyme assay (azo-dye derivative of RFAP), wild-type recombinant enzyme. Conditions: for Vmax / Km: 8.8 mM PRPP; for Km: read-out: KM for pABA. Format: biochemical.

For data set [6], the system named is RFAP synthase from M. thermophila. The settings on record: read-out: apparent KM for pABA; cited from earlier work.
The conditions of data set [7]: two acidic pKa values; cited from earlier work.
The test system of data set [8] is RFAP synthase from M. jannaschii. The arrangement: method as in PMID 9698382, PMID 15262968. Conditions: read-out: apparent KM for pABA; cited from earlier work.
Data set [9] deals with Methanothermobacter thermautotrophicus β-ribofuranosylaminobenzene 5′-phosphate (RFAP) synthase, wild type, recombinant (Methanothermobacter thermautotrophicus). The data set can be described thus: SEC; Superdex 75 gel filtration column in 50 mM TES, 150 mM KCl, 2 mM DTT, ambient temperature; enzyme eluted after 19 min, corresponding to 68.7 kDa; subunit size from SDS-PAGE. For orientation: SEC sorts molecules by how far they enter the pores of the column.

Substrate in data set [10]: Nc1ccc(C(=O)O)cc1
Kind of data set: purified protein, by the assay type.

Substrate in data set [11]: Nc1ccc(C(=O)O)cc1
Kind of data set: RFAP synthase enzyme assay, R26K variant. Format: biochemical, Methanothermobacter thermautotrophicus. Conditions: other: 50 °C, 3 h, pH 6.8, 8.8 mM PRPP. Here is the method: RFAP synthase activity was determined by producing the azo-dye derivative of the product RFAP as described previously,[17]. […] From this point on, the amount of enzyme used in activity assays was within the linear range of 8 to 12 µg. […] All assays were carried out under optimal enzymatic conditions in 70 mM PIPES (pH 6.8), 2 mM DTT at 70 °C for 1 h.
Due to the inability of the variants to function at 70 °C, the enzymatic assays comparing variant and wild-type kinetics were run in 70 mM PIPES (pH 6.8) with 2 mM DTT at 50 °C for three hours using a single time-point assay. This is the time period over which the enzyme activities were linear at the lower temperature of 50 °C. For these kinetic studies, the wild-type enzyme was purified in the same manner as the variants and was also examined at 50 °C for three hours.

As to `O=P(O)(O)OC[C@H]1OC(OP(=O)(O)OP(=O)(O)O)[C@H](O)[C@@H]1O` (some centres unmarked) [PRPP, phosphoribosyl-pyrophosphate], the Kd in data set [1] was 2400 ± 250 µM; in [2], 2000 ± 300 µM; in data set [3], 2000 µM; in data set [4] (read-out: KD for PRPP) it was 2100 ± 110 µM.

For `Nc1ccc(C(=O)O)cc1` [pABA, p-aminobenzoic acid], the Vmax in data set [5] (50 °C, 3 h, pABA varied, partially purified) is 1.45 nmol/min/mg and 1.5 nmol/min/mg; in data set [5] (70 °C, pABA varied 181 µM to 36 mM), “approximately 190 nmol/min/mg protein”. Moreover, in data set [5] (near neutral conditions versus homologs with pH optimum at 5.3), the “fold higher KM compared to previous homologs” value came out at 26 fold. For the same molecule, the Km in data set [5] (50 °C, 3 h, pH 6.8, partially purified without heat step) is 3.9 mM; in [5] (70 °C, pH 6.8, 1 h, 17.6 mM MgCl2, enzyme purified through Mono Q) it was 4.5 mM; in data set [6] it was 0.058 mM; in [8] it was 0.15 mM. Besides, the “acidic pKa” value in data set [7] was 4.65 and 4.80. The Kd in data set [4] (in presence of saturating PRPP) was 960 ± 650 µM.

“Methanothermobacter thermautotrophicus β-ribofuranosylaminobenzene 5′-phosphate (RFAP) synthase, wild type, recombinant (enzyme)”: in data set [9], the stoichiometry N was 2.

B1: wild-type M. thermautotrophicus RFAP synthase (MTH0830) produced in E. coli (Methanothermobacter thermautotrophicus str. Delta H) (protein)
chain: MVIELIINTPSRLHLTLIDLNGERGRLDGGVGITLNEPELVVGLEASDDMGVEFTSHAEGKLREEYRSKIMEAARRTLKHIGSDEKFHFTVRSMFPAHSGLGSGTQLSLATARLVAEYHGMKFTARELAHIVGRGGTSGIGVASFEDGGFIVDAGHSSREKSDFLPSSASSASPPPVIARYDFPEEWNIIIAIPEIDRSVSGRREVNIFQEYCPLPLRDVERLSHIILMKMMPAILEGDIEAFGESVNEIQGTGFKRIERELQDPLIDRIIDSMISAGAPGAGMSSFGPAVYSVTDEKPGNVAGAVAEIMGPGRIIVTGGRNRGAFMIK
As to B1, the Km came to 3.9 mM in data set [10] (other: 50 °C, 3 h, pH 6.8, 8.8 mM PRPP, partially purified without heat step, 50.0 °C); 4.5 mM in [10] (other: 70 °C, pH 6.8, 1 h, 8.8 mM PRPP, 17.6 mM MgCl2, enzyme purified through Mono Q, 70.0 °C); 4 mM in [10] (other: enzymatic assays, summary of Figure 3 and Table 2, pH 6.8).

B2: MTH0830 RFAP synthase R26K variant (Methanothermobacter thermautotrophicus str. Delta H; R26K) (protein)
chain: MVIELIINTPSRLHLTLIDLNGERGKLDGGVGITLNEPELVVGLEASDDMGVEFTSHAEGKLREEYRSKIMEAARRTLKHIGSDEKFHFTVRSMFPAHSGLGSGTQLSLATARLVAEYHGMKFTARELAHIVGRGGTSGIGVASFEDGGFIVDAGHSSREKSDFLPSSASSASPPPVIARYDFPEEWNIIIAIPEIDRSVSGRREVNIFQEYCPLPLRDVERLSHIILMKMMPAILEGDIEAFGESVNEIQGTGFKRIERELQDPLIDRIIDSMISAGAPGAGMSSFGPAVYSVTDEKPGNVAGAVAEIMGPGRIIVTGGRNRGAFMIK
Turning to B2, in data set [11], the Km worked out at 38 mM and the Vmax came to 0.005 µmol/min/mg.

B3: MTH0830 RFAP synthase D19N variant (Methanothermobacter thermautotrophicus str. Delta H; D19N) (protein)
chain: MVIELIINTPSRLHLTLINLNGERGRLDGGVGITLNEPELVVGLEASDDMGVEFTSHAEGKLREEYRSKIMEAARRTLKHIGSDEKFHFTVRSMFPAHSGLGSGTQLSLATARLVAEYHGMKFTARELAHIVGRGGTSGIGVASFEDGGFIVDAGHSSREKSDFLPSSASSASPPPVIARYDFPEEWNIIIAIPEIDRSVSGRREVNIFQEYCPLPLRDVERLSHIILMKMMPAILEGDIEAFGESVNEIQGTGFKRIERELQDPLIDRIIDSMISAGAPGAGMSSFGPAVYSVTDEKPGNVAGAVAEIMGPGRIIVTGGRNRGAFMIK
Take B3: the Km in data set [10] (other: 50 °C, 3 h, pH 6.8, 8.8 mM PRPP) was 12 mM.
